From patent publication US20240301218A1, “Polymeric Antifouling Coating with Antimicrobial Peptides” (THE UNIVERSITY OF BRITISH COLUMBIA, priority 2021, published 2024)
Values after ≈ are worked out from the molar mass of the structure shown. Where two headings read alike, the source gives them in different places. Residues, ends and D or L forms follow the SMILES beside them. No end group written: not given here.

Experiments:
[1] = system: E. coli
Source text: (§1) Ultra-high molecular weight poly(N,N-dimethylacrylamide) (uhPDMA) and high molecular weight poly(N,N-dimethylacrylamide) (hPDMA) were synthesized by atom transfer radical polymerization 391. N-(3-Aminopropyl) methacrylamide hydrochloride (APMA) (98%) was purchased from Polysciences™, USA and was used as supplied. All other reagents including 1, 1, 4, 7, 10, 10-hexamethyl triethylene tetramine (HMTETA) (97%), Tris[2-(dimethylamino)ethyl]amine (Me6TREN) 97%, methyl 2-chloropropionate (97%), CuCl (99%), CuCl2 (99%), 1-thioglycerol (97%) were purchased from Sigma-Aldrich™ (Oakville, ON). A single-side-polished silicon wafer (University Wafer™, Boston, MA) deposited with titanium was prepared by e-beam evaporation of titanium. The process was progressed in a home-assembled Evaporator 2000™ system equipped with a quartz crystal microbalance to monitor the film thickness and a cryo pump to reach high-vacuum (10^−7-10^−6 Torr) condition. After deposition, the substrates were washed with Milli-Q water™, dried via a nitrogen gun, and stored for further usage. SurFlash™I.V. Catheter Cat. #SR*FF1451, #SR*FF2419 (14 Gauge and 24 Gauge) made of polyurethane (PU), were purchased from Terumo™. […] Pure products were finally characterized by analytical reverse phase high performance liquid chromatography (RP-HPLC) and liquid chromatography-mass spectrometry (LC-MS). The broth microdilution method with minor modifications for cationic peptides was used for measuring the MICs of peptides.

[2] = system: S. aureus
Source text: as §1

[3] = system: S. saprophyticus
Source text: as §1

[4] = system: P. aeruginosa
Source text: as §1

[5] = system: S. saprophyticus (ATCC 15305); experiment: 96-well plate screening of surface conjugated AMPs for biofilm inhibition; format: cell-based; details: AMP tethered on BA coating, polypropylene 96-well plate, 24 h, vs uncoated pp
Protocol: (§2) Screening and Identification of Surface Conjugated AMPs with Anti-Biofilm Activity on a 96-Well Plate Bioluminescence-tagged bacterial strains used in this study included S. aureus (Xen36), P. aeruginosa (PAO1.lux), E. coli (E38.lux), and S. saprophyticus (ATCC 15305). Bacteria were cultured in LB, with shaking at 250 rpm, at 37° C. Bacterial growth was monitored using a spectrophotometer at the optical density of 600 nm (OD600). S. aureus Xen36 was purchased from PerkinElmer Inc.™ while P. aeruginosa PAO1.lux and E. coli E38.lux were generated by conjugating in plasmids that constitutively-expressed lux reporter genes^[40]. The biofilm inhibitory activity of AMPs conjugated onto coated polypropylene surfaces were evaluated in a static microtitre plate assay as previously described with some modifications^[41]. For all experiments, 96-well Costar™ polypropylene plates (Corning™) were used. An overnight culture of selected bacterial strains in LB was diluted to an OD600=0.01 in TSB or basal medium 2 (BM2) supplemented with 0.1% or 0.4% glucose and 0.5 mM MgSO4, (the biofilm growth medium for different bacteria is listed in TABLE 1).
(§3) For inhibition experiments, 100 μL of the diluted overnight culture was added to each well in the plate coated with control coating and AMP coating, respectively. After overnight growth under static condition at 37° C., planktonic cells were removed, adhered biomass rinsed three times with distilled water and subsequently the remaining adhered total biomass was quantified by measuring the luminescence (Total white light) using the Synergy H1™ multimode microtitre plate reader (BioTek™). The remaining adhered S. saprophyticus biomass was quantified using the crystal violet (CV) staining. Briefly, each well was added and incubated with 125 μL of 0.1% (v/v) CV solution for 30 minutes at room temperature with moderate shaking. Then, CV was discarded, and each well was rinsed three times with distilled water. The remaining CV stain was resuspended in 150 μL of 70% ethanol for 30 minutes at room temperature with moderate shaking and then quantified by measuring OD59, using the Synergy H1™ multimode microplate plate reader (BioTek™). The percent biofilm inhibition was calculated in relation to the amount of biofilm grown in the absence of the coating (defined as 100%) and the media sterility control (defined as 0% growth). The experiment was repeated 3 times with 3 technical replicates per biological replicate.

[6] = system: S. aureus (Xen36); experiment: as above; format: cell-based; details: AMP tethered on BA coating, polypropylene 96-well plate, vs uncoated pp
Protocol: as §2, §3

[7] = system: P. aeruginosa (PAO1.lux); experiment: as above; format: cell-based; details: AMP tethered on BA coating, polypropylene 96-well plate, vs uncoated pp
Protocol: as §2, §3

[8] = system: S. epidermidis; experiment: Antimicrobial activity of BA-AMPs coating against planktonic bacteria; format: cell-based; details: MHB medium, 24 h, coated PP wells
Protocol: The uhPDMA was prepared at a concentration of 36 mg mL^−1 in sodium acetate buffer (50 mM, pH=5). Dopamine was freshly prepared at a concentration of 12 mg mL^−1 in sodium acetate buffer (50 mM, pH=5) before each experiment. Sodium periodate (NaIO4) was freshly prepared at a concentration of 28 mg mL-1 in sodium acetate buffer (50 mm, pH=5). The dopamine solution was then mixed with uhPDMA solution with a volume ratio of 1:5 (dopamine:uhPDMA). Sodium periodate solution was then added to generate a final concentration of uhPDMA at 30 mg mL^−1, dopamine at 2 mg mL^−1, and NaIO4 at 0.9 mg mL^−1. Mixed solution (200 μL) was added into the wells of 96-well polypropylene plate. The plate was placed onto a rocking platform with shaking at 50 rpm for 2 hr. The coated plate was then rinsed by Milli-Q™ water and dried for further characterization. Peptide solutions (200 μL, 0.25 mg/mL in 10 mM phosphate buffer, pH ˜8) were added into the wells and incubated for 24 h. The peptide-conjugated plate were rinsed with Milli-Q™ water thoroughly and dried under argon flow. […] After 24 hrs growth under shaking condition at room temperature, bacteria culture (100 μL) was transferred to sterile clear polystyrene plate and the optical density was read using UV-vis spectrometer at wavelength 595 nm. […]

[9] = system: E. coli (E38.lux); experiment: 96-well plate screening of surface conjugated AMPs for biofilm inhibition; format: cell-based; details: AMP tethered on BA coating, polypropylene 96-well plate, vs uncoated pp
Protocol: as §2, §3

Molecule | MIC E. coli [1] [µg/mL] | MIC S. aureus [2] [µg/mL] | MIC S. saprophyticus [3] [µg/mL] | MIC P. aeruginosa [4] [µg/mL] | reduction of biofilm formation [5] [%] | reduction of biofilm formation [6] [%] | reduction of biofilm formation [7] [%] | killing of planktonic S. epidermidis [8] | reduction of biofilm formation [9] [%] | MIC E. coli ([1]; soluble peptide) [µg/mL] | MIC S. aureus ([2]; soluble peptide) [µg/mL] | MIC S. saprophyticus ([3]; soluble peptide) [µg/mL] | MIC P. aeruginosa ([4]; soluble peptide) [µg/mL]
CC[C@@H](C)[C@@H](NC(=O)[C@@H](C)NC(=O)[C@@H](CCCNC(=N)N)NC(=O)[C@@H](Cc1c[nH]c2ccccc12)NC(=O)[C@@H](CCC(N)=O)NC(=O)[C@H](N)C(C)C)C(=O)N[C@H](CCCNC(=N)N)C(=O)N[C@@H](C(=O)N[C@H](CCCNC(=N)N)C(=O)N[C@@H](C(=O)N[C@@H](C(=O)N[C@H](CCCNC(=N)N)C(N)=O)[C@H](C)CC)C(C)C)C(C)C [DJK5, vqwrairvrvir] (HELM PEPTIDE1{[dV].[dQ].[dW].[dR].[dA].[dI].[dR].[dV].[dR].[dV].[dI].[dR].[am]}$$$$V2.0; N-terminus assumed) | 1.6 (≈ 1.03 µM) | 16 (≈ 10.3 µM) | 2 (≈ 1.29 µM) | 16 (≈ 10.3 µM) | 83.4 | 90.5 | – | – | – | – | – | – | –
CC[C@@H](C)[C@@H](NC(=O)[C@@H](C)NC(=O)[C@@H](CCCNC(=N)N)NC(=O)[C@@H](Cc1c[nH]c2ccccc12)NC(=O)[C@@H](CCC(N)=O)NC(=O)[C@H](N)C(C)C)C(=O)N[C@H](CCCNC(=N)N)C(=O)N[C@@H](C(=O)N[C@H](CCCNC(=N)N)C(=O)N[C@@H](C(=O)N[C@@H](C(=O)N[C@H](CCCNC(=N)N)C(=O)N[C@H](CS)C(N)=O)[C@H](C)CC)C(C)C)C(C)C [DJK5C, vqwrairvrvirc-NH2] (HELM PEPTIDE1{[dV].[dQ].[dW].[dR].[dA].[dI].[dR].[dV].[dR].[dV].[dI].[dR].[dC].[am]}$$$$V2.0; N-terminus assumed) | 4 (≈ 2.42 µM) | 16 (≈ 9.67 µM) | 2 (≈ 1.21 µM) | 16 (≈ 9.67 µM) | ~100 | 95.1 | 99.1 | – | – | – | – | – | –
CC[C@H](C)[C@H](NC(=O)[C@H](CCCNC(=N)N)NC(=O)[C@H](Cc1c[nH]c2ccccc12)NC(=O)[C@H](CCCNC(=N)N)NC(=O)[C@@H](N)CCCCN)C(=O)N[C@@H](CCCNC(=N)N)C(=O)N[C@H](C(=O)N[C@@H](CCCNC(=N)N)C(=O)N[C@H](C(=O)N[C@H](C(=O)N[C@@H](CCCNC(=N)N)C(=O)N[C@@H](CCCCN)C(=O)NCCC(=O)NCCC(=O)N[C@@H](CS)C(N)=O)[C@@H](C)CC)C(C)C)C(C)C [Tet20LC, KRWRIRVRVIRK-bA-bA-C—NH2] (HELM PEPTIDE1{K.R.W.R.I.R.V.R.V.I.R.K.[bAla].[bAla].C.[am]}$$$$V2.0; N-terminus assumed) | 4 (≈ 2.09 µM) | 64 (≈ 33.5 µM) | 2 (≈ 1.05 µM) | 16 (≈ 8.38 µM) | ~100 | 100 | 100 | – | – | – | – | – | –
ILVRWIRWRIQWC-NH2 [3002C, ILVRWIRWRIQWC-NH2] | 16 | 32 | 8 | 128 | – | 93.6 | 32.4 | – | – | – | – | – | –
KRWRIRVRVIRKC-NH2 [Tet20C, KRWRIRVRVIRKC-NH2] | 4 | 64 | 2 | 8 | ~100 | 98.8 | 99.6 | – | – | – | – | – | –
RRWRIVVIRVRRC-NH2 [E6, RRWRIVVIRVRRC-NH2] | 8 | 64 | 4 | 32 | – | 93 | 98.2 | complete killing | 91.8 | – | – | – | –
VRLIVAVRIWRR-NH2 [IDR-1018, VRLIVAVRIWRR-NH2] | – | – | – | – | 82.2 | 93.5 | 83.2 | – | – | 9.3 | 16 | 2 | 64
rivrvrairwqv (RIVRVRAIRWQV; HELM PEPTIDE1{[dR].[dI].[dV].[dR].[dV].[dR].[dA].[dI].[dR].[dW].[dQ].[dV].[am]}$$$$V2.0; N-terminus assumed; SMILES CC[C@@H](C)[C@@H](NC(=O)[C@H](N)CCCNC(=N)N)C(=O)N[C@@H](C(=O)N[C@H](CCCNC(=N)N)C(=O)N[C@@H](C(=O)N[C@H](CCCNC(=N)N)C(=O)N[C@H](C)C(=O)N[C@@H](C(=O)N[C@H](CCCNC(=N)N)C(=O)N[C@H](Cc1c[nH]c2ccccc12)C(=O)N[C@H](CCC(N)=O)C(=O)N[C@@H](C(N)=O)C(C)C)[C@H](C)CC)C(C)C)C(C)C) [RI-DJK5] | – | – | – | – | – | – | 76.2 | – | – | – | – | – | –
vqwrrirvwvir (VQWRRIRVWVIR; HELM PEPTIDE1{[dV].[dQ].[dW].[dR].[dR].[dI].[dR].[dV].[dW].[dV].[dI].[dR].[am]}$$$$V2.0; N-terminus assumed; SMILES CC[C@@H](C)[C@@H](NC(=O)[C@@H](CCCNC(=N)N)NC(=O)[C@@H](CCCNC(=N)N)NC(=O)[C@@H](Cc1c[nH]c2ccccc12)NC(=O)[C@@H](CCC(N)=O)NC(=O)[C@H](N)C(C)C)C(=O)N[C@H](CCCNC(=N)N)C(=O)N[C@@H](C(=O)N[C@H](Cc1c[nH]c2ccccc12)C(=O)N[C@@H](C(=O)N[C@@H](C(=O)N[C@H](CCCNC(=N)N)C(N)=O)[C@H](C)CC)C(C)C)C(C)C) [DJK6] | – | – | – | – | 83.5 | – | 58.8 | – | – | – | – | – | –
